{
  "source": "patent US5591758A",
  "about": "“Organic nitrates, processes for their preparation and their use in the treatment of cardiovascular diseases” (Laboratoires Hoechst, SA, priority 1991, dated 1997)",
  "system": "unanaesthetised hypertensive dogs",
  "assay": "Haemodynamic effects in unanaesthetised hypertensive dogs",
  "format": "in vivo",
  "design": "Δdp/dt / Δdp/dt average: unit not given beside the values; ΔBPs / ΔBPd / ΔLVEDP / ΔBPs average / ΔBPd average / ΔLVEDP average / ΔHR average: unit not given here",
  "conditions": "for ΔBPd average / ΔBPs average / ΔHR average / ΔLVEDP average / Δdp/dt average: n = 3, 3 mg/kg p.o.; for ΔBPd / ΔBPs / ΔHR / ΔLVEDP / Δdp/dt: single dog",
  "method": "Haemodynamic effects of the compounds according to the invention in unanaesthetised hypertensive dogs (n=3).\nTable VI below and FIG. 1 show more particularly the change in the effect of compound (46) on the various haemodynamic parameters as a function of time, the compound being administered p.o. in a dosage of 3 mg/kg.",
  "key": {"[1]": {"conditions": "3 mg/kg p.o., 10 min, monohydrochloride, 3 mg/kg"}, "[2]": {"conditions": "3 mg/kg p.o., 20 min, monohydrochloride, 3 mg/kg"}, "[3]": {"conditions": "3 mg/kg p.o., 30 min, monohydrochloride, 3 mg/kg"}, "[4]": {"conditions": "3 mg/kg p.o., 60 min, monohydrochloride, 3 mg/kg"}, "[5]": {"conditions": "3 mg/kg p.o., 90 min, monohydrochloride, 3 mg/kg"}, "[6]": {"conditions": "3 mg/kg p.o., 120 min, monohydrochloride, 3 mg/kg"}, "[7]": {"conditions": "3 mg/kg p.o., 180 min, monohydrochloride, 3 mg/kg"}, "[8]": {"conditions": "3 mg/kg p.o., 240 min, monohydrochloride, 3 mg/kg"}, "[9]": {"conditions": "3 mg/kg p.o., 300 min, monohydrochloride, 3 mg/kg"}, "[10]": {"conditions": "3 mg/kg p.o., 360 min, monohydrochloride, 3 mg/kg"}},
  "note": "Several values for one entry are separate records, joined by “and”; a condition that tells them apart may be missing. Equal values may be shown once. Where a name gives a salt, the structure may show the parent alone.",
  "data": [
    {"smiles": "O=C(CNC(=O)[C@@H]1CSCN1)N[C@H]1CO[C@H]2[C@@H]1OC[C@@H]2O[N+](=O)[O-]", "note": "[Compound 46, 5-[[2-[[(4-L-Thiazolidinyl)carbonyl]amino]-1oxoethyl]amino]-5-deoxy-2-O-nitro-1,4:3,6-dianhydro-L-iditol monohydrochloride]", "values": [
      {"measurement": "lowering of left ventricular end-diastolic pressure (LVEDP)", "setting": "3 mg/kg p.o.", "result": "significant, pronounced and prolonged"},
      {"measurement": "lowering of systolic blood pressure (BPs)", "setting": "3 mg/kg p.o.", "result": "significant, pronounced and prolonged"},
      {"measurement": "ΔBPd average", "setting": "10 min", "result": -3},
      {"measurement": "ΔBPs average", "setting": "10 min", "result": -5},
      {"measurement": "ΔHR average", "setting": "10 min", "result": 3},
      {"measurement": "ΔLVEDP average", "setting": "10 min", "result": -1},
      {"measurement": "Δdp/dt average", "setting": "10 min", "result": -167},
      {"measurement": "ΔBPd average", "setting": "20 min", "result": 0},
      {"measurement": "ΔBPs average", "setting": "20 min", "result": -2},
      {"measurement": "ΔHR average", "setting": "20 min", "result": 17},
      {"measurement": "ΔLVEDP average", "setting": "20 min", "result": -2},
      {"measurement": "Δdp/dt average", "setting": "20 min", "result": 33},
      {"measurement": "ΔBPd average", "setting": "30 min", "result": 2},
      {"measurement": "ΔBPs average", "setting": "30 min", "result": -2},
      {"measurement": "ΔHR average", "setting": "30 min", "result": 7},
      {"measurement": "ΔLVEDP average", "setting": "30 min", "result": -1},
      {"measurement": "Δdp/dt average", "setting": "30 min", "result": 100},
      {"measurement": "ΔBPd average", "setting": "60 min", "result": 0},
      {"measurement": "ΔBPs average", "setting": "60 min", "result": -22},
      {"measurement": "ΔHR average", "setting": "60 min", "result": -7},
      {"measurement": "ΔLVEDP average", "setting": "60 min", "result": -4},
      {"measurement": "Δdp/dt average", "setting": "60 min", "result": 33},
      {"measurement": "ΔBPd average", "setting": "90 min", "result": 3},
      {"measurement": "ΔBPs average", "setting": "90 min", "result": -28},
      {"measurement": "ΔHR average", "setting": "90 min", "result": 23},
      {"measurement": "ΔLVEDP average", "setting": "90 min", "result": -5},
      {"measurement": "Δdp/dt average", "setting": "90 min", "result": -33},
      {"measurement": "ΔBPd average", "setting": "120 min", "result": 5},
      {"measurement": "ΔBPs average", "setting": "120 min", "result": -28},
      {"measurement": "ΔHR average", "setting": "120 min", "result": 33},
      {"measurement": "ΔLVEDP average", "setting": "120 min", "result": -6},
      {"measurement": "Δdp/dt average", "setting": "120 min", "result": 0},
      {"measurement": "ΔBPd average", "setting": "180 min", "result": 8},
      {"measurement": "ΔBPs average", "setting": "180 min", "result": -25},
      {"measurement": "ΔHR average", "setting": "180 min", "result": 32},
      {"measurement": "ΔLVEDP average", "setting": "180 min", "result": -5},
      {"measurement": "Δdp/dt average", "setting": "180 min", "result": 0},
      {"measurement": "ΔBPd average", "setting": "240 min", "result": 8},
      {"measurement": "ΔBPs average", "setting": "240 min", "result": -30},
      {"measurement": "ΔHR average", "setting": "240 min", "result": 27},
      {"measurement": "ΔLVEDP average", "setting": "240 min", "result": -5},
      {"measurement": "Δdp/dt average", "setting": "240 min", "result": -133},
      {"measurement": "ΔBPd average", "setting": "300 min", "result": 8},
      {"measurement": "ΔBPs average", "setting": "300 min", "result": -27},
      {"measurement": "ΔHR average", "setting": "300 min", "result": 27},
      {"measurement": "ΔLVEDP average", "setting": "300 min", "result": -2},
      {"measurement": "Δdp/dt average", "setting": "300 min", "result": 33},
      {"measurement": "ΔBPd average", "setting": "360 min", "result": 8},
      {"measurement": "ΔBPs average", "setting": "360 min", "result": -23},
      {"measurement": "ΔHR average", "setting": "360 min", "result": 13},
      {"measurement": "ΔLVEDP average", "setting": "360 min", "result": -4},
      {"measurement": "Δdp/dt average", "setting": "360 min", "result": -133},
      {"measurement": "ΔBPd", "setting": "[1]", "result": "-5 and 0"},
      {"measurement": "ΔBPs", "setting": "[1]", "result": "-5 and 0 and -10"},
      {"measurement": "ΔHR", "setting": "[1]", "result": "0 and 10"},
      {"measurement": "ΔLVEDP", "setting": "[1]", "result": "-1 and 0 and -2"},
      {"measurement": "Δdp/dt", "setting": "[1]", "result": "-100 and 0 and -400"},
      {"measurement": "ΔBPd", "setting": "3 mg/kg p.o., 20 min", "result": 0},
      {"measurement": "ΔBPs", "setting": "[2]", "result": "0 and -5"},
      {"measurement": "ΔHR", "setting": "[2]", "result": "35 and 0 and 15"},
      {"measurement": "ΔLVEDP", "setting": "[2]", "result": "-3 and 0 and -2"},
      {"measurement": "Δdp/dt", "setting": "[2]", "result": "300 and 0 and -200"},
      {"measurement": "ΔBPd", "setting": "[3]", "result": "5 and 0"},
      {"measurement": "ΔBPs", "setting": "[3]", "result": "0 and -5"},
      {"measurement": "ΔHR", "setting": "[3]", "result": "0 and 10"},
      {"measurement": "ΔLVEDP", "setting": "[3]", "result": "0 and -3"},
      {"measurement": "Δdp/dt", "setting": "[3]", "result": "0 and 500 and -200"},
      {"measurement": "ΔBPd", "setting": "[4]", "result": "5 and 0 and -5"},
      {"measurement": "ΔBPs", "setting": "[4]", "result": "-25 and -15"},
      {"measurement": "ΔHR", "setting": "[4]", "result": "10 and -10 and -20"},
      {"measurement": "ΔLVEDP", "setting": "[4]", "result": "-7 and -3"},
      {"measurement": "Δdp/dt", "setting": "[4]", "result": "0 and 500 and -400"},
      {"measurement": "ΔBPd", "setting": "[5]", "result": "5 and 10 and -5"},
      {"measurement": "ΔBPs", "setting": "[5]", "result": "-30 and -25"},
      {"measurement": "ΔHR", "setting": "[5]", "result": "35 and 45 and -10"},
      {"measurement": "ΔLVEDP", "setting": "[5]", "result": "-7 and -6 and -3"},
      {"measurement": "Δdp/dt", "setting": "[5]", "result": "-200 and 500 and -400"},
      {"measurement": "ΔBPd", "setting": "[6]", "result": "5 and 10 and 0"},
      {"measurement": "ΔBPs", "setting": "[6]", "result": "-30 and -25"},
      {"measurement": "ΔHR", "setting": "[6]", "result": "55 and 63 and -20"},
      {"measurement": "ΔLVEDP", "setting": "[6]", "result": "-9 and -7 and -2"},
      {"measurement": "Δdp/dt", "setting": "[6]", "result": "-400 and 800"},
      {"measurement": "ΔBPd", "setting": "[7]", "result": "10 and 15 and 0"},
      {"measurement": "ΔBPs", "setting": "[7]", "result": "-15 and -25 and -35"},
      {"measurement": "ΔHR", "setting": "[7]", "result": "35 and 40 and 20"},
      {"measurement": "ΔLVEDP", "setting": "[7]", "result": "-7 and -4"},
      {"measurement": "Δdp/dt", "setting": "[7]", "result": "-300 and 500 and -200"},
      {"measurement": "ΔBPd", "setting": "[8]", "result": "10 and 15 and 0"},
      {"measurement": "ΔBPs", "setting": "[8]", "result": "-15 and -35 and -40"},
      {"measurement": "ΔHR", "setting": "[8]", "result": "40 and 20"},
      {"measurement": "ΔLVEDP", "setting": "[8]", "result": "-7 and -5 and -4"},
      {"measurement": "Δdp/dt", "setting": "[8]", "result": "-500 and 500 and -400"},
      {"measurement": "ΔBPd", "setting": "[9]", "result": "10 and 15 and 0"},
      {"measurement": "ΔBPs", "setting": "[9]", "result": "-15 and -45 and -40"},
      {"measurement": "ΔHR", "setting": "[9]", "result": "45 and 40 and -5"},
      {"measurement": "ΔLVEDP", "setting": "[9]", "result": "-4 and 0 and -3"},
      {"measurement": "Δdp/dt", "setting": "[9]", "result": "-300 and 800 and -400"},
      {"measurement": "ΔBPd", "setting": "[10]", "result": "10 and 15 and 0"},
      {"measurement": "ΔBPs", "setting": "[10]", "result": "-10 and -25 and -35"},
      {"measurement": "ΔHR", "setting": "[10]", "result": "15 and 10"},
      {"measurement": "ΔLVEDP", "setting": "[10]", "result": "-5 and -3 and -4"},
      {"measurement": "Δdp/dt", "setting": "[10]", "result": "-500 and 500 and -400"}
    ]}
  ]
}
